# From ChEMBL document CHEMBL1131350, “Design of novel tripeptides with macrophage migration-enhancing activity” (1998)
# Peptide text beside a SMILES is read from it. * marks the point of attachment. Fmoc = O=C(OCC1c2ccccc2-c2ccccc21)*; Cbz = O=C(OCc1ccccc1)*; Boc = CC(C)(C)OC(=O)*
# System: not listed separately
# Test: Macrophage migration-enhancing activity evaluated using rabbit alveolar macrophages at 1E-7M
# Format: functional, Oryctolagus cuniculus
row,Structure (SMILES),MI
1,NC(=O)[C@H](Cc1c[nH]cn1)NC(=O)[C@H](Cc1ccc(O)cc1)NC(=O)[C@H](Cc1ccc(O)cc1)NC(=O)OCc1ccccc1 (Cbz-Tyr-Tyr-His-NH2),-25
2,NC(=O)[C@H](Cc1c[nH]cn1)NC(=O)[C@H](Cc1c[nH]c2ccccc12)NC(=O)[C@H](Cc1ccccc1)NC(=O)OCc1ccccc1 (Cbz-Phe-Trp-His-NH2),7
3,O=C(N[C@@H](Cc1ccccc1)C(=O)N[C@@H](Cc1ccccc1)C(=O)N[C@@H](Cc1c[nH]cn1)C(=O)O)OCc1ccccc1 (Cbz-Phe-Phe-His-OH),-6
4,NC(=O)[C@H](Cc1c[nH]cn1)NC(=O)[C@H](Cc1ccccc1)NC(=O)[C@H](Cc1ccc(O)cc1)NC(=O)OCc1ccccc1 (Cbz-Tyr-Phe-His-NH2),-28
5,CC(=O)N[C@@H](Cc1ccccc1)C(=O)N[C@@H](Cc1ccccc1)C(=O)N[C@@H](Cc1c[nH]cn1)C(N)=O (Ac-Phe-Phe-His-NH2),61
6,NC(=O)[C@H](Cc1c[nH]cn1)NC(=O)[C@H](Cc1ccccc1)NC(=O)[C@H](Cc1ccccc1)N1C(=O)c2ccccc2C1=O,-1
7,NC(=O)[C@H](Cc1c[nH]cn1)NC(=O)[C@H](Cc1ccccc1)NC(=O)[C@H](Cc1ccccc1)NC(=O)[C@H](Cc1ccccc1)NC(=O)OCc1ccccc1 (Cbz-FFFH-NH2),15
8,NC(=O)C(Cc1c[nH]cn1)NC(=O)[C@@H](Cc1ccccc1)NC(=O)OCc1ccccc1 (some centres undefined),18
9,NC(=O)[C@H](Cc1ccccc1)NC(=O)[C@H](Cc1ccccc1)NC(=O)[C@H](Cc1c[nH]cn1)NC(=O)OCc1ccccc1 (Cbz-His-Phe-Phe-NH2),1
10,N=C(N)NCCC[C@H](NC(=O)[C@H](Cc1ccccc1)NC(=O)[C@H](Cc1ccccc1)NC(=O)OCc1ccccc1)C(N)=O (Cbz-Phe-Phe-Arg-NH2),8
11,CC(C)C[C@H](NC(=O)[C@H](Cc1ccccc1)NC(=O)OCc1ccccc1)C(=O)N[C@@H](Cc1c[nH]cn1)C(N)=O (Cbz-Phe-Leu-His-NH2),4
12,NC(=O)[C@H](Cc1c[nH]cn1)NC(=O)[C@H](Cc1ccccc1)NC(=O)[C@@H](Cc1ccccc1)NC(=O)OCc1ccccc1,2
13,CC(C)[C@H](NC(=O)OCc1ccccc1)C(=O)N[C@@H](Cc1ccccc1)C(=O)N[C@@H](Cc1c[nH]cn1)C(N)=O (Cbz-Val-Phe-His-NH2),3
14,C[C@H](NC(=O)OCc1ccccc1)C(=O)N[C@@H](Cc1ccccc1)C(=O)N[C@@H](Cc1c[nH]cn1)C(N)=O (Cbz-Ala-Phe-His-NH2),2
15,NC(=O)[C@H](Cc1c[nH]cn1)NC(=O)[C@H](Cc1ccc(O)cc1)NC(=O)[C@H](Cc1ccccc1)NC(=O)OCc1ccccc1 (Cbz-Phe-Tyr-His-NH2),-23
16,CC(C)C[C@H](NC(=O)OCc1ccccc1)C(=O)N[C@@H](Cc1ccccc1)C(=O)N[C@@H](Cc1c[nH]cn1)C(N)=O (Cbz-Leu-Phe-His-NH2),4
17,NC(=O)[C@H](Cc1c[nH]cn1)NC(=O)[C@H](Cc1ccccc1)NC(=O)[C@H](Cc1c[nH]c2ccccc12)NC(=O)OCc1ccccc1 (Cbz-Trp-Phe-His-NH2),14
18,NCCCC[C@H](NC(=O)[C@H](Cc1ccccc1)NC(=O)[C@H](Cc1ccccc1)NC(=O)OCc1ccccc1)C(N)=O (Cbz-Phe-Phe-Lys-NH2),3
19,NC(=O)[C@@H](Cc1c[nH]cn1)NC(=O)[C@H](Cc1ccccc1)NC(=O)[C@H](Cc1ccccc1)NC(=O)OCc1ccccc1,-1
20,NC(=O)[C@H](Cc1ccccc1)NC(=O)[C@H](Cc1c[nH]cn1)NC(=O)[C@H](Cc1ccccc1)NC(=O)OCc1ccccc1 (Cbz-Phe-His-Phe-NH2),-1
21,COC(=O)[C@H](Cc1c[nH]cn1)NC(=O)[C@H](Cc1ccccc1)NC(=O)[C@H](Cc1ccccc1)NC(=O)OCc1ccccc1 (Cbz-Phe-Phe-His-OMe),97
22,NC(=O)[C@H](Cc1c[nH]cn1)NC(=O)[C@H](Cc1c[nH]c2ccccc12)NC(=O)[C@H](Cc1c[nH]c2ccccc12)NC(=O)OCc1ccccc1 (Cbz-Trp-Trp-His-NH2),4
23,CC(C)(C)OC(=O)N[C@@H](Cc1ccccc1)C(=O)N[C@@H](Cc1ccccc1)C(=O)N[C@@H](Cc1c[nH]cn1)C(N)=O (Boc-Phe-Phe-His-NH2),96
24,NC(=O)[C@H](Cc1c[nH]cn1)NC(=O)[C@H](Cc1ccccc1)NC(=O)[C@H](Cc1ccccc1)NC(=O)OCc1ccccc1,94
25,NC(=O)[C@H](Cc1c[nH]cn1)NC(=O)[C@@H](Cc1ccccc1)NC(=O)[C@H](Cc1ccccc1)NC(=O)OCc1ccccc1,0
26,NC(=O)[C@H](Cc1c[nH]cn1)NC(=O)[C@H](Cc1ccccc1)NC(=O)[C@H](Cc1ccccc1)NC(=O)OCC1c2ccccc2-c2ccccc21 (Fmoc-Phe-Phe-His-NH2),122
27,NC(=O)[C@H](Cc1c[nH]cn1)NC(=O)[C@H](Cc1ccccc1)NC(=O)[C@@H](N)Cc1ccccc1 (H-Phe-Phe-His-NH2),7
28,CCOC(=O)[C@H](Cc1c[nH]cn1)NC(=O)[C@H](Cc1ccccc1)NC(=O)[C@H](Cc1ccccc1)NC(=O)OCc1ccccc1 (Cbz-Phe-Phe-His-OEt),95

# Organism: Oryctolagus cuniculus
# Test: Macrophage migration-enhancing activity was evaluated using rabbit alveolar macrophages expressed as Migration Index (MI)
# Format: functional
row,Structure (SMILES),MI
1,Clc1ccc(C2=N[C@H](c3ccccc3)[C@H](c3ccccc3)N2)cc1,140
